Test results from publication PMC11943435, “Functional Investigation of the Receptor to the Major Pheromone Component in the C-Strain and the R-Strain of the Fall Armyworm Spodoptera frugiperda” (Insects, 2025).

Target: T1, C-SfruOR13 (SfruOR13 from the C-strain) (Spodoptera frugiperda, UniProt A0A9R0CXR4)
T1 construct: gene LOC118264496; full-length ORF (435 residues), synthesized, pUAST.attB; expressed in Drosophila at1 trichoid OSNs (Or67d-GAL4) replacing OR67d; Orco is that of the fly host; with Odorant receptor coreceptor (endogenous, Drosophila melanogaster)
T1 sequence (A0A9R0CXR4 1-435): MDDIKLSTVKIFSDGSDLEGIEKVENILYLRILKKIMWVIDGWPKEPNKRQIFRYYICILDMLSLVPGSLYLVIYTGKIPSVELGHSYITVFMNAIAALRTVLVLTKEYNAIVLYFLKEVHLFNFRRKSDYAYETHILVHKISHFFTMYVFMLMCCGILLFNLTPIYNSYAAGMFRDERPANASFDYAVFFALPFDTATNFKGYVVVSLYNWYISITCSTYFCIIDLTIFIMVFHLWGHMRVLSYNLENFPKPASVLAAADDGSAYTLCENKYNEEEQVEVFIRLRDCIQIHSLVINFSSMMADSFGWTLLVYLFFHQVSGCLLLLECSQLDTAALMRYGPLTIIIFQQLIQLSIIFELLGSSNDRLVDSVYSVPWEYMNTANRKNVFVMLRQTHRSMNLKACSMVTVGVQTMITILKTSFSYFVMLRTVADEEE
T1 sequence (Q9VNB5 1-486 partner): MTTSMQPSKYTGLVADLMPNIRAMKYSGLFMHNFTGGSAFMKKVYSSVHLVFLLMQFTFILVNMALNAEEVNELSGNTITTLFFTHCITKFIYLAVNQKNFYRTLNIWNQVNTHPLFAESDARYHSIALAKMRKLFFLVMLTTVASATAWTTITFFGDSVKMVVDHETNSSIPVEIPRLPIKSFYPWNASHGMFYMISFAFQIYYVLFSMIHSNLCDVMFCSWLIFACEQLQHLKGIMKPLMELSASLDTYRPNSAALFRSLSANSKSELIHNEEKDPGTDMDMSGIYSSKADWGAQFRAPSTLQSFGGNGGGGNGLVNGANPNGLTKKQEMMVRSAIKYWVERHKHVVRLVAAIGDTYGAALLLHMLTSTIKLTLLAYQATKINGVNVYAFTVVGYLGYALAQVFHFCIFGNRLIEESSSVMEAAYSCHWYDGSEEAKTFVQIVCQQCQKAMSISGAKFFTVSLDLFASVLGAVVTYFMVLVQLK
Assay: single-sensillum recording, Drosophila at1 OSNs, dose-response
Type: cell-based
Conditions: agonist; vapour stimulus, 10 ng to 10 µg loaded on filter paper in hexane

## CCCC/C=C\CCCCCCCCOC(C)=O [(Z)-9-14:OAc, (Z)-9-tetradecenyl acetate]
  single-sensillum recording, Drosophila at1 OSNs, dose-response: C-SfruOR13 was significantly activated by the same three compounds that elicited a response in R-SfruOR13
